US9314019B2, “Snout beetle attractant” (priority 2011, dated 2016)

System: snout beetles
Test: Field test of individual odorants in yellow Delta traps
Assay type: in vivo, Eremnus setulosus and/or Phlyctinus calosus
Settings: for Numbers of snout beetles caught in yellow Delta traps, Mean: mean of six replications, traps collected after one week; for Numbers of snout beetles caught in yellow Delta traps, Rep. 1: replication 1; for Numbers of snout beetles caught in yellow Delta traps, Rep. 1 / Numbers of snout beetles caught in yellow Delta traps, Rep. 2 / Numbers of snout beetles caught in yellow Delta traps, Rep. 3 / Numbers of snout beetles caught in yellow Delta traps, Rep. 4 / Numbers of snout beetles caught in yellow Delta traps, Rep. 5 / Numbers of snout beetles caught in yellow Delta traps, Rep. 6: traps at ground level against apple tree trunks, collected after one week; for Numbers of snout beetles caught in yellow Delta traps, Rep. 2: replication 2; for Numbers of snout beetles caught in yellow Delta traps, Rep. 3: replication 3; for Numbers of snout beetles caught in yellow Delta traps, Rep. 4: replication 4; for Numbers of snout beetles caught in yellow Delta traps, Rep. 5: replication 5; for Numbers of snout beetles caught in yellow Delta traps, Rep. 6: replication 6
Excerpt: Yellow Delta traps fitted with bottom sticky pads upon which odorant dispensers of the various test odorants were applied, were placed on ground level against the trunks of bearing apple trees in the Koue Bokkeveld area in the Western Cape Province, South Africa. Test orchards infested with snout beetles were selected on the farms Dennekruin and Voorsorg in the Ceres-Koue-Bokkeveld area.
Unloaded or “blank” traps with no odorants, but identical to the other traps in all other respects, were used as a control. There are no attractants registered for use on snout beetles on deciduous fruit in South Africa with which to compare the experimental results.
After one week the traps were collected and the snout beetles caught were counted and noted. Six replications were used per odorant tested. In Table 1 below the summarised results of the experiments are presented.

Structure (SMILES)	Numbers of snout beetles caught in yellow Delta traps, Mean	Numbers of snout beetles caught in yellow Delta traps, Rep. 1	Numbers of snout beetles caught in yellow Delta traps, Rep. 2	Numbers of snout beetles caught in yellow Delta traps, Rep. 3	Numbers of snout beetles caught in yellow Delta traps, Rep. 4	Numbers of snout beetles caught in yellow Delta traps, Rep. 5	Numbers of snout beetles caught in yellow Delta traps, Rep. 6
COC1=C(C)OC(C)C1=O (centres unmarked) [2,5-Dimethyl-4-methoxy-3(2H)-furanone]	3.5	2	4	3	2	3	7
COc1cccc(C(C)=O)c1 [3-Methoxy acetophenone]	2.5	3	1	6	2	1	2
CC(=O)CCC(C)C [5-Methyl-2-hexanone]	2.7	4	1	1	5	3	2
COc1ccccc1 [Anisole]	2.7	4	1	3	3	2	3
O=C(O)C1CC1 [Cyclopropane carboxylic acid]	7.8	6	7	5	7	3	19
